Patent publication US20220401414A1, “TREATMENT AND PREVENTION OF A NEURODEGENERATIVE DISORDER” (Inflazome Limited, priority 2019, published 2022)

How the values were obtained:
[1] = Study B: blood-brain barrier penetration, striatal MetaQuant microdialysis in unilateral 6-OHDA lesioned mice after oral dosing; format: in vivo, C57B1/6 mice; conditions: 6-OHDA mice; for average peak levels in left and right striatal dialysate: MetaQuant dialysate, not corrected for recovery (recovery 61%); for time of average peak levels after compound administration: striatal dialysate
Procedure: The present study was designed to assess the free concentration of the compound of formula (I) in the left and right striatum of freely-moving adult male mice with a unilateral 6-hydroxydopamine (6-OHDA) lesion.
Adult male C57B1/6 mice (23-28 g; Envigo, the Netherlands) were used for the experiments. Following arrival, animals were housed in groups of 5 in polypropylene cages (40×50×20 cm) with wire mesh top in a temperature (22±2° C.) and humidity (55±15%) controlled environment on a 12 hour light cycle (07.00-19.00). Following surgery, animals were housed individually (cages 30×30×40 cm). Standard diet (SDS Diets, RM1 PL) and domestic quality mains water were available ad libitum.
Mice were anesthetized using isoflurane (2% and 500 mL/min O2). Before surgery, Finadyne (1 mg/kg, s.c.) was administered for analgesia during surgery and the post-surgical recovery period. A mixture of bupivacaine and epinephrine was used for local analgesia of the incision site.
The animals were placed in a stereotaxic frame (Kopf instruments, USA). 10 μg of 6-OHDA in 2 μL saline was slowly injected into the right striatum using a Hamilton needle (coordinates for the tip of the needle: AP=−0.5 mm (to bregma), ML=−2.0 mm (to midline), DV=-4.0 mm (to dura) with an angle of 0° and the incisor bar set at 0.0 mm.
In the same surgical procedure, guides for MetaQuant microdialysis probes with a 3 mm exposed polyacrylonitrile membrane (MQ-PAN 3/3) were implanted bilaterally into the left and right striatum (coordinates for the tip of the probe: AP=+0.8 mm (to bregma), ML=+/−1.7 mm (to midline), DV=−4.0 mm (to dura) with an angle of 0° and the incisor bar set at 0.0 mm. All coordinates were based on “The mouse brain in stereotaxic coordinates” by Paxinos and Franklin (2008). The probes were attached to the skull with a stainless-steel screw and dental cement.
The monosodium salt of the compound of formula (I) was formulated in sterilized tap water at concentrations of 0.2 and 4 mg/mL for oral dosing at 5 mL/kg; 1 mg/kg and 20 mg/kg, respectively.
After recovery from lesion and the guide surgery, on day 10, MetaQuant microdialysis probes were connected with flexible PEEK tubing (Western Analytical Products Inc. USA; PK005-020) to a microperfusion pump (Harvard) and perfused with a slow flow of artificial CSF (perfusate), containing 147 mM NaCl, 3.0 mM KCl, 1.2 mM CaCl2, and 1.2 mM MgCl2, at a flow rate of 0.12 μL/min and a carrier flow of UP+0.02 M FA+0.04% ascorbic acid at 0.8 μL/min. After a minimum of two hours of prestabilisation, microdialysis samples were collected in 60 minute intervals. […]
Levels of the compound of formula (I) in MetaQuant microdialysate samples were quantified by LC-MS/MS. […]

[2] = test system: 6-OHDA mouse model of Parkinson's disease; test: Studies C and D: amphetamine-induced ipsilateral rotations in the 6-OHDA mouse model; format: in vivo, C57BL6 mice; conditions: day 21 after 6-OHDA (12 μg)
Procedure: To determine the oral efficacy of the compound of formula (I) in the 6-OHDA mouse model of Parkinson's disease.
8-week-old C57BL6 male mice (obtained from ARC, Perth, Australia) were housed under a 12-h light cycle in a SPF climate-controlled facility with food and water provided ad libitum for two weeks prior to study initiation. For treatment with the compound of formula (I), mice were dosed via oral gavage. Ten (10) mice in each group were dosed at 3 or 1 mg/kg, starting the day before (24 hr prior) stereotaxic surgery, and then QD until sacrifice.
6-OHDA (Sigma) was prepared immediately prior to surgeries. A sterile saline (0.9%) solution containing ascorbic acid (0.2%) was used as the vehicle to dissolve 6-OHDA. […] In order to inject a final concentration of 12 μg into the right striatum, a working stock of 6 mg/ml was made injecting a final volume of 2 μl.
Mice were anaesthetized using ketamine (100 mg/kg, i.p.) and xylazine (10 mg/kg i.p.)
anesthesia and were placed into a stereotactic frame with nose and ear bars specially adapted for mice. The lesion was performed using a 5 μl Hamilton syringe to deliver either vehicle or 6-OHDA (12 μg) at the following coordinates relative to bregma: AP: −1.2 mm; ML: −1.7 mm; DV: 3.5 mm into the right dorsal striatum according to the stereotaxic atlas (“The mouse brain in stereotaxic coordinates” by Paxinos and Franklin, 1997). After drilling a 1 mm burr-hole in the skull, a 2 μl volume of solution was infused at the target site at the rate of 0.5 μl per minute. The needle was held in place for at least 5 minutes after injection to minimize retrograde flow along the needle tract. Mice were administered a subcutaneous injection of sterile Ringer's solution to is facilitate recovery and were placed on a heat-pad until complete recovery from anesthesia.
Amphetamine-induced ipsilateral rotations were performed at day 21 post-surgery. Mice were injected with 2 mg/kg of D-amphetamine and placed in circular glass bowls.
After an acclimatization period of five minutes, the net ipsilateral rotations over ten minutes were recorded and counted. Quantitation was performed from recorded videos by an investigator blinded to the treatment groups.
The aim of study D was to compare the neuroprotective efficacy of the compound of formula (I) with MCC95o in the mouse unilateral 6-OHDA model at 3 mg/kg. The amphetamine-induced ipsilateral rotations and striatal dopamine (DA) levels were assessed, using a protocol identical to that used for study C, with ten (10) mice in each group being dosed at 3 mg/kg for each drug, starting the day before (24 hr prior) stereotaxic surgery, and then daily throughout until sacrifice.

CC(C)n1ccc(S(=O)(=O)NC(=O)Nc2c3c(cc4c2CCC4)CCC3)n1 [compound of formula (I)]
average peak levels in left and right striatal dialysate ([1]; 1 mg/kg oral): 17 to 19 nM
time of average peak levels after compound administration ([1]; 1 mg/kg oral): 5 h
average peak levels in left and right striatal dialysate ([1]; 20 mg/kg oral): 280 to 300 nM
time of average peak levels after compound administration ([1]; 20 mg/kg oral): 6 h
amphetamine-induced ipsilateral rotations ([2]; Study C, 3 mg/kg oral gavage QD from 24 hr before surgery): significant protective effect
amphetamine-induced ipsilateral rotations ([2]; Study D, 3 mg/kg oral daily): fewer ipsilateral rotations compared to MCC950
reduction in amphetamine-induced rotations relative to the 6-OHDA untreated group ([2]; Study D, 3 mg/kg oral daily): 75%
